US6943016B1, “Human adult astrocytes, their preparation and uses thereof” (Aventis Pharma S.A., priority 1999, dated 2005)

Test system: human adult astrocytes
Experiment: TH activity in transduced human adult astrocytes (enzymatic assay of Reinhard et al.)
Type: cell-based
Conditions: AdPGKtet hTH-1-infected astrocytes, doxycycline 10 ng/ml
Method: The medium was renewed every second day.
Three, 7 and 14 days after infection, cells were harvested and processed to measure TH activity and evaluate L-Dopa production. TH activity of cell pellets was assayed as previously described (Reinhard et al. 1986). The production of L-Dopa was assessed after growing human astrocytes for 24 h in DMEM/F12 without FCS. Conditioned media was collected, and 0.5 ml aliquots were mixed with an alumina suspension (40 mg/ml) in 0.05 M Tris-HCl, pH 8.6. Each mixture was then continuously stirred for 10 min, washed with the Tris-HCl buffer, and the alumina finally collected by centrifugation (800 g, 5 min. 4° C.). Catechols adsorbed onto the alumina gel were eluted with 0.6 N perchloric acid (0.1 ml per sample), and the eluate was neutralized with 2 M potassium phosphate pH 7.4 (20 μl per sample). After centrifugation (30 000 g, 15 min, 4° C.), 10 μl aliquots of the cleared supernatant were injected into a high performance liquid chromatography column (Ultrasphere IP, 25 cm, 0.46 cm outer diameter, 5 μm) for the electrochemical quantification of L-Dopa, as described in detail elsewhere (Adrien et al., 1989).

C[C@H]1c2cccc(O)c2C(=O)C2=C(O)[C@]3(O)C(=O)C(C(N)=O)=C(O)[C@@H](N(C)C)[C@@H]3[C@@H](O)[C@@H]21 [doxycycline]
decrease of TH activity in the presence of doxycycline (14 days post-infection): at least 10 fold | TH activity in doxycycline-treated cells (day 14): 3,590 pmol/mg prot/h
